# Patent US12037339B2, “Substituted imidazoles as GLP-1 receptor agonists” (Eccogene Inc., priority 2020, dated 2024)
# Target: (Homo sapiens, UniProt P43220)
# Experiment: h-GLP-1 activity assay (cAMP HTRF, HEK293 cells with stable expression of human GLP-1)
# Format: cell-based
# Details: relative EC50, 10 nM human GLP-1 set as 100% response, 30 min at 37° C.
# In short: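 HEK293 cells stably expressing human GLP-1 receptor construct exposed to compound 30 min at 37 °C in buffer with 0.1% BSA and 0.5 mM IBMX; cAMP measured by HTRF against a cAMP standard curve. 10 nM human GLP-1 set as 100%; relative EC50 from 4-parameter fit.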
# Sequence of (Homo sapiens, UniProt P43220) (P43220 24-463): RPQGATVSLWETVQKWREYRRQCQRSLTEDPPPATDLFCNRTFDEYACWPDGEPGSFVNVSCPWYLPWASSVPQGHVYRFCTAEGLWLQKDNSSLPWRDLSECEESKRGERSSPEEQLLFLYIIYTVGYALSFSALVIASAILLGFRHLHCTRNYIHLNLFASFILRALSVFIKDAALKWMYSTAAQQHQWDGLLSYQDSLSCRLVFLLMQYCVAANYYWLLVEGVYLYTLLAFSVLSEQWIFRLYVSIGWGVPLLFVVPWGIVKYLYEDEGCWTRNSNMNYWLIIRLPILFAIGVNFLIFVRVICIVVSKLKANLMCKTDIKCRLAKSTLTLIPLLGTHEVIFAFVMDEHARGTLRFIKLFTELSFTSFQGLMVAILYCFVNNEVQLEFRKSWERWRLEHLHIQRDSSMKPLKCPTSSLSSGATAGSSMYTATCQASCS
row,Structure (SMILES),EC50 [nM]
1,"C[C@H]1c2c(nn(-c3ccc(F)c(C4CC4)c3)c2-n2ccn(-c3ccc4c(cnn4C)c3F)c2=O)CCN1C(=O)c1cc2c(F)c([C@H]3CCOC(C)(C)C3)ccn2c1C1(c2noc(=O)[nH]2)CC1 (single isomer, unassigned) [Compound 95]",> 100
2,"C[C@H]1c2c(nn(-c3ccc(F)c(C4CC4)c3)c2-n2ccn(-c3ccc4c(cnn4C)c3F)c2=O)CCN1C(=O)c1nc2cc([C@@H]3CCOC(C)(C)C3)ccn2c1C1(c2noc(=O)[nH]2)CC1 (single isomer, unassigned) [Compound 98]",20 to 100
3,"C[C@H]1c2c(nn(-c3ccc(F)c(C4CC4)c3)c2-n2ccn(-c3ccc4c(cnn4C)c3F)c2=O)CCN1C(=O)c1cc2cc([C@H]3CCOC(C)(C)C3)cnn2c1C1(c2noc(=O)[nH]2)CC1 (single isomer, unassigned) [Compound 99]",< 20
4,"C[C@H]1c2c(nn(-c3ccc(F)c(C4CC4)c3)c2-n2ccn(-c3ccc4c(cnn4C)c3F)c2=O)CCN1C(=O)c1cc2cc([C@@H]3CCOC(C)(C)C3)cnn2c1C1(c2noc(=O)[nH]2)CC1 (single isomer, unassigned) [Compound 100]",20 to 100
5,"C[C@H]1c2c(nn(-c3ccc(F)c(C4CC4)c3)c2-n2ccn(-c3ccc4c(cnn4C)c3F)c2=O)CCN1C(=O)c1cc2nc([C@H]3CCOC(C)(C)C3)ccn2c1C1(c2noc(=O)[nH]2)CC1 (single isomer, unassigned) [Compound 101]",> 100
6,"C[C@H]1c2c(nn(-c3ccc(F)c(C4CC4)c3)c2-n2ccn(-c3ccc4c(cnn4C)c3F)c2=O)CCN1C(=O)c1cc2nc([C@@H]3CCOC(C)(C)C3)ccn2c1C1(c2noc(=O)[nH]2)CC1 (single isomer, unassigned) [Compound 102]",< 20
7,"Cc1cc(-n2nc3c(c2-n2ccn(-c4ccc5c(cnn5C)c4F)c2=O)[C@H](C)N(C(=O)c2cn4cc(-c5ccnc(C(F)(F)F)c5)ccc4c2Cc2noc(=O)[nH]2)CC3)cc(C)c1F [Compound 15, (S)-3-((2-(3-(3-(4-fluoro-1-methyl-1H-indazol-5-yl)-2-oxo-2,3-dihydro-1H-imidazol-1-yl)-2-(4-fluoro-3,5-dimethylphenyl)-4-methyl-4,5,6,7-tetrahydro-2H-pyrazolo[4,3-c]pyridine-5-carbonyl)-6-(2-(trifluoromethyl)pyridin-4-yl)indolizin-1-yl)methyl)-1,2,4-oxadiazol-5(4H)-one]",< 20
8,"Cn1ncc2c(F)c(-n3ccn(-c4c(-c5ccc(F)cc5)nn5c4CN(C(=O)c4cc6cc(C7CCOCC7)ccc6n4-c4ccccc4C(=O)O)CC5)c3=O)ccc21 [Compound 55, 2-(2-(3-(3-(4-fluoro-1-methyl-1H-indazol-5-yl)-2-oxo-2,3-dihydro-1H-imidazol-1-yl)-2-(4-fluorophenyl)-4,5,6,7-tetrahydropyrazolo[1,5-a]pyrazine-5-carbonyl)-5-(tetrahydro-2H-pyran-4-yl)-1H-indol-1-yl)benzoic acid]",> 100
9,"Cc1cc(-n2nc3c(c2-n2ccn(-c4ccc5c(cnn5C)c4F)c2=O)[C@H](C)N(C(=O)c2cc4cc(C5CCOCC5)ccc4n2-c2cccc(C(=O)O)c2)CC3)cc(C)c1F [Compound 56, (S)-3-(2-(3-(3-(4-fluoro-1-methyl-1H-indazol-5-yl)-2-oxo-2,3-dihydro-1H-imidazol-1-yl)-2-(4-fluoro-3,5-dimethylphenyl)-4-methyl-4,5,6,7-tetrahydro-2H-pyrazolo[4,3-c]pyridine-5-carbonyl)-5-(tetrahydro-2H-pyran-4-yl)-1H-indol-1-yl)benzoic acid]",< 20
10,"Cc1cc(-c2ccc3c(c2)cc(C(=O)N2CCn4nc(-c5ccc(F)cc5)c(-n5ccn(-c6ccc7c(cnn7C)c6F)c5=O)c4C2)n3Cc2noc(=O)[nH]2)ccn1 [Compound 58, 3-((2-(3-(3-(4-fluoro-1-methyl-1H-indazol-5-yl)-2-oxo-2,3-dihydro-1H-imidazol-1-yl)-2-(4-fluorophenyl)-4,5,6,7-tetrahydropyrazolo[1,5-a]pyrazine-5-carbonyl)-5-(2-methylpyridin-4-yl)-1H-indol-1-yl)methyl)-1,2,4-oxadiazol-5(4H)-one]",< 20

# Second part, the compound after the results:
row,EC50 [nM],Structure (SMILES)
1,< 20,"C[C@H]1c2c(nn(-c3ccc(F)c(C4CC4)c3)c2-n2ccn(-c3ccc4c(cnn4C)c3F)c2=O)CCN1C(=O)c1cc2c(F)c([C@@H]3CCOC(C)(C)C3)ccn2c1C1(c2noc(=O)[nH]2)CC1 (single isomer, unassigned) [Compound 96]"
2,> 100,"C[C@H]1c2c(nn(-c3ccc(F)c(C4CC4)c3)c2-n2ccn(-c3ccc4c(cnn4C)c3F)c2=O)CCN1C(=O)c1nc2cc([C@H]3CCOC(C)(C)C3)ccn2c1C1(c2noc(=O)[nH]2)CC1 (single isomer, unassigned) [Compound 97]"
3,< 20,"Cc1cc(-n2nc3c(c2-n2ccn(-c4ccc5c(cnn5C)c4F)c2=O)[C@H](C)N(C(=O)c2cn4cc(N5CCOC(C)(C)C5)ccc4c2C2(c4noc(=O)[nH]4)CC2)CC3)cc(C)c1F [Compound 1, (S)-3-(1-(6-(2,2-dimethylmorpholino)-2-(3-(3-(4-fluoro-1-methyl-1H-indazol-5-yl)-2-oxo-2,3-dihydro-1H-imidazol-1-yl)-2-(4-fluoro-3,5-dimethylphenyl)-4-methyl-4,5,6,7-tetrahydro-2H-pyrazolo[4,3-c]pyridine-5-carbonyl)indolizin-1-yl)cyclopropyl)-1,2,4-oxadiazol-5(4H)-one]"
4,< 20,"Cc1cc(-n2nc3c(c2-n2ccn(-c4ccc5c(cnn5C)c4F)c2=O)[C@H](C)N(C(=O)c2cn4cc(-c5ccnc(C(F)(F)F)c5)ccc4c2C2(c4noc(=O)[nH]4)CC2)CC3)cc(C)c1F [Compound 2, (S)-3-(1-(2-(3-(3-(4-fluoro-1-methyl-1H-indazol-5-yl)-2-oxo-2,3-dihydro-1H-imidazol-1-yl)-2-(4-fluoro-3,5-dimethylphenyl)-4-methyl-4,5,6,7-tetrahydro-2H-pyrazolo[4,3-c]pyridine-5-carbonyl)-6-(2-(trifluoromethyl)pyridin-4-yl)indolizin-1-yl)cyclopropyl)-1,2,4-oxadiazol-5(4H)-one]"
5,> 100,"Cc1cc(-n2nc3c(c2-n2ccn(-c4ccc5c(cnn5C)c4F)c2=O)CN(C(=O)c2cc4cc(C5CCOCC5)ccc4n2-c2ccccc2-c2noc(=O)[nH]2)CC3)cc(C)c1F [Compound 37, 3-(2-(2-(3-(3-(4-fluoro-1-methyl-1H-indazol-5-yl)-2-oxo-2,3-dihydro-1H-imidazol-1-yl)-2-(4-fluoro-3,5-dimethylphenyl)-4,5,6,7-tetrahydro-2H-pyrazolo[4,3-c]pyridine-5-carbonyl)-5-(tetrahydro-2H-pyran-4-yl)-1H-indol-1-yl)phenyl)-1,2,4-oxadiazol-5(4H)-one]"
6,> 100,"COCc1ccc(-n2ccn(-c3c4c(nn3-c3cc(C)c(F)c(C)c3)CCN(C(=O)c3cc5cc(C6CCOCC6)ccc5n3-c3ccccc3C(=O)O)[C@H]4C)c2=O)cc1 [Compound 57, (S)-2-(2-(2-(4-fluoro-3,5-dimethylphenyl)-3-(3-(4-(methoxymethyl)phenyl)-2-oxo-2,3-dihydro-1H-imidazol-1-yl)-4-methyl-4,5,6,7-tetrahydro-2H-pyrazolo[4,3-c]pyridine-5-carbonyl)-5-(tetrahydro-2H-pyran-4-yl)-1H-indol-1-yl)benzoic acid]"
